Measurements published in paper PMC8611036, “An integrated method for optimized identification of effective natural inhibitors against SARS-CoV-2 3CLpro” (Scientific Reports, 2021).
Non-standard residues stand in square brackets, D forms with d. Residues, ends and D or L forms follow the SMILES beside them. 2Thi = N[C@@H](Cc1cccs1)C(=O)O; Cha = N[C@@H](CC1CCCCC1)C(=O)O

These compounds were tested on SARS-CoV 3CLpro. Details: not given.
Assay type: biochemical

Compound	Inact.(<6)/Act.(>=6)
COC(=O)[C@]1(C)CC[C@]2(C)CC[C@]3(C)C4=CC=C5C(=CC(=O)C(O)=C5C)[C@]4(C)CC[C@@]3(C)[C@@H]2C1 [CMP128]	Inact. (key: Inact.(<6); Act.(>=6))

Same assay, conditions: activity class by pIC50 threshold 6

Compound	Inact.(<6)/Act.(>=6)
CC(=O)Nc1cnc(SSc2ccc(Br)cc2)s1 [CMP23, reference compound]	Inact. (Inact.(<6))
O=C1NN(c2ccc(Cl)c(Cl)c2)C(=O)/C1=C\c1ccc(-c2ccc(Br)cc2C(=O)O)o1 [CMP104]	Inact. (Inact.(<6))
C=C(CCSc1ccccc1NC(=O)/C=C/c1ccccc1)OC [CMP107]	Inact. (Inact.(<6))
COc1ccc2c(c1)CCC1C2=NN(C(C)=O)C1c1cccc(I)c1 (stereo not drawn) [CMP116]	Inact. (Inact.(<6))
Cc1coc2c1C(=O)C(=O)c1c-2ccc2c(C)cccc12 [CMP127]	Inact. (Inact.(<6))
O=C(Sc1nnc(C(F)(F)F)[nH]1)c1ccc(C#Cc2ccccc2)o1 [CMP143]	Inact. (Inact.(<6))
O=c1c(O)c(-c2ccc(O)c(O)c2)oc2cc(O)cc(O)c12 [CMP151]	Inact. (Inact.(<6))
COc1cc(/C=C/C(=O)/C=C(O)/C=C/c2ccc(O)c(OC)c2)ccc1O [CMP156]	Inact. (Inact.(<6))
COc1ccc(-c2cc(=O)c3c(O)cc(O)cc3o2)cc1-c1c(O)cc(O)c2c(=O)cc(-c3ccc(O)cc3)oc12 [CMP157]	Inact. (Inact.(<6))
CC(C)c1cc2c(cc1O)[C@@]1(C)CC[C@H](O)C(C)(C)[C@@H]1CC2 [CMP163]	Inact. (Inact.(<6))
CCN(CC)c1ccc(C(=O)On2nnc3ccccc32)cc1 [CMP164]	Inact. (Inact.(<6))
O=C(Oc1cncc(Cl)c1)c1ccc(Cl)cc1 [CMP165]	Act. (Act.(>=6))
O=C(Oc1cncc(Cl)c1)c1ccncc1 [CMP167]	Act. (Act.(>=6))
COc1cccc(C(=O)Oc2cncc(Cl)c2)c1 [CMP171]	Act. (Act.(>=6))
O=C(Oc1cncc(Cl)c1)c1cccnc1 [CMP172]	Act. (Act.(>=6))
CC(C)(C)NC(=O)C(c1cccnc1)N(C(=O)c1cnco1)c1ccc(C(C)(C)C)cc1 (stereo not drawn) [CMP188]	Inact. (Inact.(<6))
CC(C)(C)NC(=O)C(c1ccsc1)N(C(=O)Cn1nnc2ccccc21)c1ccc(NC(=O)C2CC2)cc1 (stereo not drawn) [CMP191]	Inact. (Inact.(<6))
O=C(Nc1ccc(N(Cc2ccsc2)C(=O)Cn2nnc3ccccc32)cc1)C1CC1 [CMP195]	Inact. (Inact.(<6))
CC(C)C(=O)Nc1ccc(N(Cc2ccsc2)C(=O)Cn2nnc3ccccc32)cc1 [CMP198]	Inact. (Inact.(<6))
CC(C)COC(=O)Nc1ccc(N(Cc2ccsc2)C(=O)Cn2nnc3ccccc32)cc1 [CMP199]	Inact. (Inact.(<6))
CC1=CC[C@]2(C)CC[C@]3(C)C4=CC=C5C(=CC(=O)C(O)=C5C)[C@]4(C)CC[C@@]3(C)[C@@H]2C1 [CMP200]	Inact. (Inact.(<6))
CC(C)(C)NC(=O)C(c1cccnc1)N(C(=O)c1ccc(Cl)o1)c1ccc(C(C)(C)C)cc1 (stereo not drawn) [CMP201]	Inact. (Inact.(<6))
CC(C)(C)NC(=O)C(c1cccnc1)N(C(=O)c1ncco1)c1ccc(C(C)(C)C)cc1 (stereo not drawn) [CMP202]	Inact. (Inact.(<6))

Compound	Inact.(<6)/Act.(>=6)
CC(C)(C)NC(=O)C(c1ccnnc1)N(C(=O)c1ccco1)c1ccc(C(C)(C)C)cc1 (stereo not drawn) [CMP203]	Inact. (Inact.(<6))
CC(C)(C)NC(=O)C(c1cnccn1)N(C(=O)c1ccco1)c1ccc(C(C)(C)C)cc1 (stereo not drawn) [CMP204]	Inact. (Inact.(<6))
CC(C)(C)NC(=O)C(c1ccncc1)N(C(=O)c1ccco1)c1ccc(C(C)(C)C)cc1 (stereo not drawn) [CMP205]	Inact. (Inact.(<6))
Cn1cnc(C(=O)N(c2ccc(C(C)(C)C)cc2)C(C(=O)NC(C)(C)C)c2cccnc2)c1 (stereo not drawn) [CMP206]	Inact. (Inact.(<6))
CC(=O)Oc1cc2c(cc1C(C)C)CC[C@H]1[C@](C)(CO)CCC[C@]21C [CMP207]	Inact. (Inact.(<6))
CC(C)c1cc2c(cc1O)[C@@]1(C)CCC[C@@](C)(C=O)[C@@H]1CC2 [CMP208]	Inact. (Inact.(<6))
C=C1CC[C@H]2[C@](C)(CO)CCC[C@]2(C)[C@H]1CC/C(C)=C\CO [CMP209]	Inact. (Inact.(<6))
CC(=O)Nc1ccc(N(C(=O)Cn2cc(-c3ccccc3)nn2)C(C(=O)NC(C)(C)C)c2ccsc2)cc1 (stereo not drawn) [CMP210]	Inact. (Inact.(<6))
CC(=O)N[C@@H](CO)C(=O)N[C@@H](C)C(=O)N[C@H](C(=O)N[C@@H](CC(C)C)C(=O)N[C@H](C=O)Cc1ccccc1)C(C)C [CMP215] (Ac-SAVLF-aldehyde)	Inact. (Inact.(<6))
CC(=O)N[C@@H](CO)C(=O)N[C@@H](C)C(=O)N[C@H](C(=O)N[C@@H](CC(C)C)C(=O)N[C@H](C=O)Cc1cccs1)C(C)C [CMP216] (Ac-SAVL[2Thi]-aldehyde)	Inact. (Inact.(<6))
CC(=O)N[C@@H](CC(N)=O)C(=O)N[C@H](C(=O)N[C@@H](CC1CCCCC1)C(=O)N[C@H](C=O)Cc1c[nH]cn1)C(C)C [CMP217] (Ac-NV[Cha]H-aldehyde)	Inact. (Inact.(<6))
CC(=O)N[C@@H](CO)C(=O)N[C@H](C(=O)N[C@@H](CC1CCCCC1)C(=O)N[C@H](C=O)Cc1c[nH]cn1)C(C)C [CMP218] (Ac-SV[Cha]H-aldehyde)	Act. (Act.(>=6))
CC(=O)N[C@@H](C)C(=O)N[C@H](C(=O)N[C@@H](CC1CCCCC1)C(=O)N[C@H](C=O)Cc1c[nH]cn1)C(C)C [CMP219] (Ac-AV[Cha]H-aldehyde)	Act. (Act.(>=6))
CCC(=O)Nc1ccc(N(Cc2ccsc2)C(=O)Cn2nnc3ccccc32)cc1 [CMP220]	Inact. (Inact.(<6))
O=C(Cn1nnc2ccccc21)N(Cc1ccsc1)c1ccc(NCc2ccccc2)cc1 [CMP221]	Inact. (Inact.(<6))
COc1ncc(-c2ccc(N(Cc3ccsc3)C(=O)Cn3nnc4ccccc43)cc2)cn1 [CMP222]	Inact. (Inact.(<6))
CNc1ccc(N(Cc2ccsc2)C(=O)Cn2nnc3ccccc32)cc1 [CMP223]	Inact. (Inact.(<6))
O=C(Cn1nnc2ccccc21)N(Cc1ccsc1)c1ccc(-c2cccnc2)cc1 [CMP224]	Act. (Act.(>=6))
COc1ncccc1-c1ccc(N(Cc2ccsc2)C(=O)Cn2nnc3ccccc32)cc1 [CMP225]	Act. (Act.(>=6))
O=C(Cn1nnc2ccccc21)N(Cc1ccsc1)c1ccc(-c2ccncc2)cc1 [CMP226]	Inact. (Inact.(<6))
CN1CCN(S(=O)(=O)c2ccc3c(c2)C(=O)C(=O)N3)CC1 [CMP227]	Inact. (Inact.(<6))
Cc1cc(C(=O)N[C@@H](C)C(=O)N[C@H](C(=O)N[C@@H](CC(C)C)C(=O)N[C@H](C#N)CCC(N)=O)C(C)C)no1 [CMP228]	Inact. (Inact.(<6))
CC(C)C[C@H](NC(=O)[C@@H](NC(=O)[C@H](C)NC(=O)OC(C)(C)C)C(C)C)C(=O)N[C@H](C#N)CCC(N)=O [CMP229]	Inact. (Inact.(<6))

Compound	Inact.(<6)/Act.(>=6)
CC(C)C[C@H](NC(=O)[C@@H](NC(=O)[C@H](C)NC(=O)OCc1ccccc1)C(C)C)C(=O)N[C@H](C#N)CCC(N)=O [CMP230]	Inact. (Inact.(<6))
CC(C)C[C@H](NC(=O)[C@@H](NC(=O)[C@H](C)NC(=O)[C@H](CO)NC(=O)[C@@H](NC(=O)OCc1ccccc1)[C@@H](C)O)C(C)C)C(=O)N[C@H](C#N)CCC(N)=O [CMP231] (HELM PEPTIDE1{[O=C(OCc1ccccc1)[*:2]].T.S.A.V.L.[N#C[C@H](CCC(N)=O)N[*:1]]}$$$$V2.0)	Inact. (Inact.(<6))
O=C(Oc1cncc(Br)c1)c1cccs1 [CMP232]	Act. (Act.(>=6))
C=C(Cc1cccc(C)c1)C1=CC=C(c2ccc(C)cc2)C1 [CMP233]	Inact. (Inact.(<6))
CC(C)(C)NC(=O)C(c1cccnc1)N(C(=O)C1=NC=NC1)c1ccc(C(C)(C)C)cc1 (stereo not drawn) [CMP234]	Inact. (Inact.(<6))
O=C1Nc2ccc(S(=O)(=O)N3CCN(Cc4cccc(Cl)c4)CC3)cc2C1=O [CMP235]	Inact. (Inact.(<6))
COc1cc(CN2CCN(S(=O)(=O)c3ccc4c(c3)C(=O)C(=O)N4)CC2)cc(OC)c1OC [CMP236]	Inact. (Inact.(<6))
O=C1Nc2ccc(S(=O)(=O)N3CCN(CCc4ccccc4)CC3)cc2C1=O [CMP237]	Inact. (Inact.(<6))
O=C1Nc2ccc(S(=O)(=O)N3CCN(C(=O)c4ccco4)CC3)cc2C1=O [CMP238]	Inact. (Inact.(<6))
O=C1Nc2ccc(S(=O)(=O)N3CCN(c4ccccn4)CC3)cc2C1=O [CMP239]	Inact. (Inact.(<6))
CC1CCCCN1S(=O)(=O)c1ccc2c(c1)C(=O)C(=O)N2 (stereo not drawn) [CMP240]	Inact. (Inact.(<6))
CN1CCN(S(=O)(=O)c2ccc3c(c2)C(=O)C(=O)N3C)CC1 [CMP241]	Inact. (Inact.(<6))
CN1CCN(S(=O)(=O)c2ccc3c(c2)C(=O)C(=O)N3Cc2ccccc2)CC1 [CMP242]	Inact. (Inact.(<6))
CN1CCN(S(=O)(=O)c2ccc3c(c2)C(=O)C(=O)N3Cc2ccc3ccccc3c2)CC1 [CMP243]	Inact. (Inact.(<6))
CN1C(=O)C(=O)c2cc(S(=O)(=O)N3CCN(CCc4ccccc4)CC3)ccc21 [CMP244]	Inact. (Inact.(<6))
CN1C(=O)C(=O)c2cc(S(=O)(=O)N3CCN(c4ccccn4)CC3)ccc21 [CMP245]	Inact. (Inact.(<6))
O=C1C(=O)N(Cc2ccc3ccccc3c2)c2ccc(S(=O)(=O)N3CCOCC3)cc21 [CMP246]	Inact. (Inact.(<6))
CC1CCN(S(=O)(=O)c2ccc3c(c2)C(=O)C(=O)N3C)CC1 [CMP247]	Inact. (Inact.(<6))
CC1CCN(S(=O)(=O)c2ccc3c(c2)C(=O)C(=O)N3Cc2ccccc2)CC1 [CMP248]	Inact. (Inact.(<6))
CC1CCN(S(=O)(=O)c2ccc3c(c2)C(=O)C(=O)N3Cc2ccc3ccccc3c2)CC1 [CMP249]	Inact. (Inact.(<6))
CC1CC(C)CN(S(=O)(=O)c2ccc3c(c2)C(=O)C(=O)N3C)C1 (stereo not drawn) [CMP250]	Inact. (Inact.(<6))
CC1CC(C)CN(S(=O)(=O)c2ccc3c(c2)C(=O)C(=O)N3Cc2ccccc2)C1 (stereo not drawn) [CMP251]	Inact. (Inact.(<6))
